Patent publication US12077503B2, “Substituted cyclic amides and their use as herbicides” (FMC CORPORATION, priority 2015, dated 2024)

Key:
Type in all cases: in vivo
rice (Oryra sativa) = assay: Test B flooded paddy test; conditions: Flood, 0 to 100 scale where 0 is no effect and 100 is complete control, 13 to 15 d
Summary of the method: (§1)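 Flooding to 3 cm over soil accompanied treatment, which consisted of adding compound to the standing water around 2-leaf plants; depth was then maintained. Visual assessment versus controls followed at 13 to 15 d (scale 0–100, 0 meaning no effect).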

[1] = system: barnyardgrass (Echinochloa crus-galli); assay: Test B flooded paddy test; conditions: Flood, 0 to 100 scale where 0 is no effect and 100 is complete control, 13 to 15 d
Summary of the method: as §1

[2] = system: ducksalad (Heteranthera limosa); assay: Test B flooded paddy test; conditions: Flood, 0 to 100 scale where 0 is no effect and 100 is complete control, 13 to 15 d
Summary of the method: as §1

[3] = system: sedge, umbrella (small-flower umbrella sedge, Cyperus difformis); assay: Test B flooded paddy test; conditions: Flood, 0 to 100 scale where 0 is no effect and 100 is complete control, 13 to 15 d
Summary of the method: as §1

[4] = system: Galium (catchweed bedstraw, Galium aparine); assay: Test A postemergence
Text: (§2) Seeds of plant species selected from barnyardgrass (Echinochloa crus-galli), Kochia (Kochia scoparia), ragweed (common ragweed, Ambrosia elatior), ryegrass, Italian (Italian ryegrass, Lolium multiflorum), crabgrass, large (Digitaria sanguinalis), giant foxtail (Setaria faberii), green foxtail (Setaria viridis), morningglory (Ipomoea spp.), pigweed (Amaranthus retroflexus), velvetleaf (Abutilon theophrasti), wheat (Triticum aestivum), and corn (Zea mays) were planted into a blend of loam soil and sand and treated preemergence with a directed soil spray using test chemicals formulated in anon-phytotoxic solvent mixture which included a surfactant.
(§3) At the same time, plants selected from these crop and weed species and also blackgrass (Alopecurus myosuroides), and Galium (catchweed bedstraw, Galium aparine) were planted in pots containing the same blend of loam soil and sand and treated with postemergence applications of test chemicals formulated in the same manner. Plants ranged in height from 2 to 10 cm and were in the one- to two-leaf stage for the postemergence treatment. Treated plants and untreated controls were maintained in a greenhouse for approximately 10 d, after which time all treated plants were compared to untreated controls and visually evaluated for injury. Plant response ratings, summarized in Table A, are based on a 0 to 100 scale where 0 is no effect and 100 is complete control. A dash (-) response means no test result.

[5] = system: ragweed (common ragweed, Ambrosia elatior); assay: Test A postemergence
Text: as §2, §3

[6] = system: ryegrass, Italian (Italian ryegrass, Lolium multiflorum); assay: Test A postemergence
Text: as §2, §3

[7] = system: pigweed (Amaranthus retroflexus); assay: Test A postemergence
Text: as §2, §3

[8] = system: barnyardgrass (Echinochloa crus-galli); assay: Test A postemergence; conditions: for Barnyardgrass plant response rating: 125 g ai/ha, postemergence, visual injury rating on 0 to 100 scale (0 no effect, 100 complete control), approx. 10 d; for Plant response rating, Barnyardgrass: Postemergence, 500 g ai/ha, 0 to 100 scale where 0 is no effect and 100 is complete control
Text: as §2, §3

corn (Zea mays) = assay: Test A postemergence
Text: as §2, §3

[9] = system: wheat (Triticum aestivum); assay: Test A postemergence
Text: as §2, §3

[10] = system: blackgrass (Alopecurus myosuroides); assay: Test A postemergence; conditions: for Blackgrass plant response rating: 125 g ai/ha, postemergence, visual injury rating on 0 to 100 scale (0 no effect, 100 complete control), approx. 10 d; for Plant response rating, Blackgrass: Postemergence, 500 g ai/ha, 0 to 100 scale where 0 is no effect and 100 is complete control
Text: as §2, §3

Kochia (Kochia scoparia) [11] = assay: Test A postemergence
Text: as §2, §3

[12] = system: giant foxtail (Setaria faberii); assay: Test A postemergence
Text: as §2, §3

[13] = system: ragweed (common ragweed, Ambrosia elatior); assay: Test A preemergence; conditions: Preemergence; for Plant response rating, Ragweed: 125 g ai/ha, visual injury after approximately 10 d, 0 to 100 scale where 0 is no effect and 100 is complete control; for Ragweed plant response rating (0 to 100 scale, 0 is no effect, 100 is complete control): 500 g ai/ha, visual injury approx. 10 d
Text: as §2, §3

[14] = system: ryegrass, Italian (Italian ryegrass, Lolium multiflorum); assay: Test A preemergence; conditions: Preemergence; for Plant response rating, Ryegrass, Italian: 125 g ai/ha, visual injury after approximately 10 d, 0 to 100 scale where 0 is no effect and 100 is complete control; for Ryegrass, Italian plant response rating (0 to 100 scale, 0 is no effect, 100 is complete control): 500 g ai/ha, visual injury approx. 10 d
Text: as §2, §3

[15] = system: pigweed (Amaranthus retroflexus); assay: Test A preemergence; conditions: Preemergence; for Plant response rating, Pigweed: 125 g ai/ha, visual injury after approximately 10 d, 0 to 100 scale where 0 is no effect and 100 is complete control; for Pigweed plant response rating (0 to 100 scale, 0 is no effect, 100 is complete control): 500 g ai/ha, visual injury approx. 10 d
Text: as §2, §3

[16] = system: barnyardgrass (Echinochloa crus-galli); assay: Test A preemergence; conditions: Preemergence; for Plant response rating, Barnyardgrass: 125 g ai/ha, visual injury after approximately 10 d, 0 to 100 scale where 0 is no effect and 100 is complete control; for Barnyardgrass plant response rating (0 to 100 scale, 0 is no effect, 100 is complete control): 500 g ai/ha, visual injury approx. 10 d
Text: as §2, §3

Kochia (Kochia scoparia) [17] = assay: Test A preemergence; conditions: Preemergence; for Plant response rating, Kochia: 125 g ai/ha, visual injury after approximately 10 d, 0 to 100 scale where 0 is no effect and 100 is complete control; for Kochia plant response rating (0 to 100 scale, 0 is no effect, 100 is complete control): 500 g ai/ha, visual injury approx. 10 d
Text: as §2, §3

[18] = system: giant foxtail (Setaria faberii); assay: Test A preemergence; conditions: Preemergence; for Plant response rating, Foxtail, Giant: 125 g ai/ha, visual injury after approximately 10 d, 0 to 100 scale where 0 is no effect and 100 is complete control; for Foxtail, Giant plant response rating (0 to 100 scale, 0 is no effect, 100 is complete control): 500 g ai/ha, visual injury approx. 10 d
Text: as §2, §3

[19] = 125 g ai/ha, postemergence, visual injury rating on 0 to 100 scale (0 no effect, 100 complete control), approx. 10 d
[20] = Postemergence, 500 g ai/ha, 0 to 100 scale where 0 is no effect and 100 is complete control
[21] = 125 g ai/ha, postemergence, visual rating after approx. 10 d, 0 to 100 scale (0 no effect, 100 complete control)

## O=C1NCC(c2ccc(C(F)(F)F)c(F)c2)C1C(=O)Nc1ccccc1F (racemic) [Compound 521]
Rice (Oryra sativa); 250 g ai/ha
  Plant response rating, Rice: 0
[1]; 250 g ai/ha
  Plant response rating, Barnyardgrass: 40
[2]; 250 g ai/ha
  Plant response rating, Ducksalad: 85
[3]; 250 g ai/ha
  Plant response rating, Sedge, Umbrella: 0
[4]; [19]
  Galium plant response rating: 50
[4]; [20]
  Plant response rating, Galium: 60
[5]; [19]
  Ragweed plant response rating: 0
[5]; [20]
  Plant response rating, Ragweed: 0
[6]; [19]
  Ryegrass, Italian plant response rating: 20
[6]; [20]
  Plant response rating, Ryegrass, Italian: 40
[7]; [19]
  Pigweed plant response rating: 40
[7]; [20]
  Plant response rating, Pigweed: 50
[8]
  Barnyardgrass plant response rating: 90
  Plant response rating, Barnyardgrass: 90
Corn (Zea mays); [19]
  Corn plant response rating: 30
Corn (Zea mays); [20]
  Plant response rating, Corn: 40
[9]; [19]
  Wheat plant response rating: 20
[9]; [20]
  Plant response rating, Wheat: 50
[10]
  Blackgrass plant response rating: 30
  Plant response rating, Blackgrass: 40
Kochia (Kochia scoparia) [11]; [19]
  Kochia plant response rating: 0
Kochia (Kochia scoparia) [11]; [20]
  Plant response rating, Kochia: 20
[12]; [19]
  Foxtail, Giant plant response rating: 70
[12]; [20]
  Plant response rating, Foxtail, Giant: 90
[13]
  Plant response rating, Ragweed: 40
  Ragweed plant response rating (0 to 100 scale, 0 is no effect, 100 is complete control): 60
[14]
  Plant response rating, Ryegrass, Italian: 30
  Ryegrass, Italian plant response rating (0 to 100 scale, 0 is no effect, 100 is complete control): 50
[15]
  Plant response rating, Pigweed: 60
  Pigweed plant response rating (0 to 100 scale, 0 is no effect, 100 is complete control): 70
[16]
  Plant response rating, Barnyardgrass: 90
  Barnyardgrass plant response rating (0 to 100 scale, 0 is no effect, 100 is complete control): 90
Kochia (Kochia scoparia) [17]
  Plant response rating, Kochia: 0
  Kochia plant response rating (0 to 100 scale, 0 is no effect, 100 is complete control): 70
[18]
  Plant response rating, Foxtail, Giant: 90
  Foxtail, Giant plant response rating (0 to 100 scale, 0 is no effect, 100 is complete control): 90

## O=C1NCC(c2ccc(Oc3ccccc3)cc2)C1C(=O)Nc1ccccc1F (racemic) [Compound 534]
Rice (Oryra sativa); 500 g ai/ha
  Plant response rating, Rice: 20
[1]; 500 g ai/ha
  Plant response rating, Barnyardgrass: 0
[2]; 500 g ai/ha
  Plant response rating, Ducksalad: 0
[3]; 500 g ai/ha
  Plant response rating, Sedge, Umbrella: 0
[4]; [21]
  Plant response rating, Galium: 0
[4]; [20]
  Plant response rating, Galium: 0
[5]; [21]
  Plant response rating, Ragweed: 0
[5]; [20]
  Plant response rating, Ragweed: 0
[6]; [21]
  Plant response rating, Ryegrass, Italian: 0
[6]; [20]
  Plant response rating, Ryegrass, Italian: 0
[7]; [21]
  Plant response rating, Pigweed: 0
[7]; [20]
  Plant response rating, Pigweed: 0
[8]
  Barnyardgrass plant response rating: 0
  Plant response rating, Barnyardgrass: 0
Corn (Zea mays); [21]
  Plant response rating, Corn: 0
Corn (Zea mays); [20]
  Plant response rating, Corn: 0
[9]; [21]
  Plant response rating, Wheat: 0
[9]; [20]
  Plant response rating, Wheat: 0
[10]
  Blackgrass plant response rating: 0
  Plant response rating, Blackgrass: 0
Kochia (Kochia scoparia) [11]; [21]
  Plant response rating, Kochia: 0
Kochia (Kochia scoparia) [11]; [20]
  Plant response rating, Kochia: 0
[12]; [21]
  Plant response rating, Foxtail, Giant: 0
[12]; [20]
  Plant response rating, Foxtail, Giant: 0
[13]
  Plant response rating, Ragweed: 0
  Ragweed plant response rating (0 to 100 scale, 0 is no effect, 100 is complete control): 0
[14]
  Plant response rating, Ryegrass, Italian: 0
  Ryegrass, Italian plant response rating (0 to 100 scale, 0 is no effect, 100 is complete control): 0
[15]
  Plant response rating, Pigweed: 0
  Pigweed plant response rating (0 to 100 scale, 0 is no effect, 100 is complete control): 0
[16]
  Plant response rating, Barnyardgrass: 0
  Barnyardgrass plant response rating (0 to 100 scale, 0 is no effect, 100 is complete control): 0
Kochia (Kochia scoparia) [17]
  Plant response rating, Kochia: 0
  Kochia plant response rating (0 to 100 scale, 0 is no effect, 100 is complete control): 0
[18]
  Plant response rating, Foxtail, Giant: 0
  Foxtail, Giant plant response rating (0 to 100 scale, 0 is no effect, 100 is complete control): 0
